Patent publication US4587333A, “Cephalosporins and their production” (Takeda Chemical Industries, Ltd., priority 1983, dated 1986)
≈ marks a conversion by molar mass, not a printed value.

How the values were obtained:
Escherichia coli 0-111 = assay: therapeutic effect to infectious disease of mice; format: in vivo; details: 0111; mice infected with Escherichia coli 0-111; subcutaneous (SC); TAN-547 hydrochloride(s)
[1] = property of the substance (amphoteric); format: physicochemical; details: dihydrochloride is neutral
solubility = format: physicochemical
[2] = stability in aqueous solution; format: physicochemical
[3] = test system: Klebsiella pneumoniae IFO 3317; assay: antimicrobial spectrum (minimal inhibitory concentration); format: cell-based; details: IFO3317, pH 7.0
Source text: (§1) The antimicrobial spectra of the compound (I) are shown in Table 1. | *Culture medium: 17.5 g of Bacto antibiotic medium 3 (Difco), 5 g of | Bacto yeast extract (Difco), 20 g of Bacto agar (Difco), 1 l of distilled | water; pH 7.0 | The amount of inoculated microorganism: 1 loopful of about 10^6 /ml o | microorganism suspension.

[4] = test system: Serratia marcescens IFO 12648; assay: as above; format: cell-based; details: IFO12648, pH 7.0
Source text: as §1

[5] = test system: Pseudomonas aeruginosa IFO 3080; assay: as above; format: cell-based; details: IFO3080, pH 7.0
Source text: as §1

[6] = test system: Salmonella typhimurium IFO 12529; assay: as above; format: cell-based; details: Salmonella enterica, pH 7.0
Source text: as §1

[7] = test system: Escherichia coli NIHJ JC-2; assay: as above; format: cell-based; details: NIHJJC2, pH 7.0
Source text: as §1

[8] = test system: Alcaligenes faecalis IFO 13111; assay: as above; format: cell-based; details: IFO13111, pH 7.0
Source text: as §1

[9] = test system: Citrobacter freundii IFO 12681; assay: as above; format: cell-based; details: IFO12681, pH 7.0
Source text: as §1

[10] = test system: Bacillus subtilis NIHJ PCI219; assay: as above; format: cell-based; details: NIHJPCI219, pH 7.0
Source text: as §1

[11] = test system: Staphylococcus aureus FDA 209P; assay: as above; format: cell-based; details: FDA209P, pH 7.0
Source text: as §1

[12] = test system: Brevibacterium thiogenitalis ATCC 19240; assay: as above; format: cell-based; details: Corynebacterium glutamicum, ATCC19240, pH 7.0
Source text: as §1

[13] = test system: Acinetobacter calcoaceticus IFO 12552; assay: as above; format: cell-based; details: IFO12552, pH 7.0
Source text: as §1

[14] = test system: Proteus vulgalis IFO 3988; assay: as above; format: cell-based; details: pH 7.0
Source text: as §1

[15] = test system: Bacillus megaterium IFO 12108; assay: as above; format: cell-based; details: Priestia megaterium, IFO12108, pH 7.0
Source text: as §1

[16] = test system: β-lactamase produced by Proteus vulgalis GN 4413; assay: stability to β-lactamase (relative ratio of hydrolysis rate); format: biochemical; details: CER rated at 100
Source text: (§2) In the above Table 3, the stabilities against the β-lactamase produced by Escherichia coli TN 713 and β-lactamase produced by Klebsiella oxytoca TN 1719 are expressed on a numerical scale, whereby the stabilities of PCG against these are rated at 100. Also, the stabilities against the β-lactamase produced by Serratia marcescens and β-lactamase produced by Proteus vulgaris are expressed on a numerical scale, whereby the stabilities of CER against these are rated at 100.

[17] = test system: β-lactamase produced by Serratia marcescens TN 81; assay: as above; format: biochemical; details: CER rated at 100
Source text: as §2

[18] = test system: β-lactamase produced by Escherichia coli TN 713; assay: as above; format: biochemical; details: PCG rated at 100
Source text: as §2

[19] = test system: β-lactamase produced by Klebsiella oxytoca TN 1719; assay: as above; format: biochemical; details: PCG rated at 100
Source text: as §2

β-lactamase = assay: stability to β-lactamase (overall statement); format: biochemical; details: as seen from Table 3
Source text: as §2

[20] = acute toxicity, subcutaneous administration to mice; format: in vivo; details: subcutaneously, 1 g/kg
[21] = dimethylsulfoxide, methanol, acetone, ethyl acetate
[22] = water, aqueous acetone, aqueous alcohol

Compound | ED50 (Escherichia coli 0-111) | Property of the substance [1] | Solubility (solubility; [21]) | Solubility (solubility; [22]) | Stability ([2]; acidic aqueous solution) | Stability ([2]; basic aqueous solution) | Stability ([2]; neutral aqueous solution) | MIC [3] | MIC [4] | MIC [5] | MIC [6] | MIC [7] | MIC [8] | MIC [9] | MIC [10] | MIC [11] | MIC [12] | MIC [13] | MIC [14] | MIC [15] | further results
CC(N)C(=O)NC(C)C(=O)NC(C)C(=O)NC(CCCNC(=N)N)C(O)CC(=O)OCC1=C(C(=O)O)N2C(=O)C(NC(=O)CCCC(N)C(=O)O)C2SC1 (centres unmarked) [TAN-547 F] | 25 mg/kg | Amphoteric substance | Hardly soluble | Easily soluble | Slightly unstable | Unstable | Slightly unstable | 100 µg/mL (≈ 127 µM) | > 100 µg/mL | > 100 µg/mL | 100 µg/mL (≈ 127 µM) | > 100 µg/mL | 12.5 µg/mL (≈ 15.9 µM) | > 100 µg/mL | 1.56 µg/mL (≈ 1.98 µM) | 12.5 µg/mL (≈ 15.9 µM) | 3.13 µg/mL (≈ 3.98 µM) | 100 µg/mL (≈ 127 µM) | 100 µg/mL (≈ 127 µM) | 1.56 µg/mL (≈ 1.98 µM) | –
CC(N)C(=O)NC(C)C(=O)NC(CCCNC(=N)N)C(O)CC(=O)OCC1=C(C(=O)O)N2C(=O)C(NC=O)(NC(=O)CCCC(N)C(=O)O)C2SC1 (centres unmarked) [TAN-547 B] | 17.2 mg/kg | Amphoteric substance | Hardly soluble | Easily soluble | Unstable | Unstable | slightly unstable | 50 µg/mL (≈ 65.9 µM) | 50 µg/mL (≈ 65.9 µM) | > 50 µg/mL | 25 µg/mL (≈ 32.9 µM) | 25 µg/mL (≈ 32.9 µM) | 6.25 µg/mL (≈ 8.24 µM) | 50 µg/mL (≈ 65.9 µM) | 12.5 µg/mL (≈ 16.5 µM) | > 50 µg/mL | 6.25 µg/mL (≈ 8.24 µM) | 3.13 µg/mL (≈ 4.12 µM) | 25 µg/mL (≈ 32.9 µM) | 12.5 µg/mL (≈ 16.5 µM) | Relative ratio of hydrolysis rate [16]: < 0.01; Relative ratio of hydrolysis rate [17]: < 0.01; Relative ratio of hydrolysis rate [18]: < 0.01; Relative ratio of hydrolysis rate [19]: < 0.01; stability to β-lactamase (β-lactamase): remarkably stable
CC(N)C(=O)NC(C)C(=O)NC(CCCNC(=N)N)C(O)CC(=O)OCC1=C(C(=O)O)N2C(=O)C(NC(=O)CCCC(N)C(=O)O)C2SC1 (centres unmarked) [TAN-547 E] | 21 mg/kg | Amphoteric substance | Hardly soluble | Easily soluble | Slightly unstable | Unstable | Slightly unstable | 100 µg/mL (≈ 140 µM) | > 100 µg/mL | > 100 µg/mL | 50 µg/mL (≈ 69.9 µM) | 50 µg/mL (≈ 69.9 µM) | 12.5 µg/mL (≈ 17.5 µM) | > 100 µg/mL | 1.56 µg/mL (≈ 2.18 µM) | 25 µg/mL (≈ 34.9 µM) | 3.13 µg/mL (≈ 4.37 µM) | 100 µg/mL (≈ 140 µM) | 50 µg/mL (≈ 69.9 µM) | 1.56 µg/mL (≈ 2.18 µM) | –
CC1(C)S[C@@H]2[C@H](NC(=O)Cc3ccccc3)C(=O)N2[C@H]1C(=O)O [PCG, benzylpenicillin, reference compound] | – | – | – | – | – | – | – | – | – | – | – | – | – | – | – | – | – | – | – | – | Relative ratio of hydrolysis rate [16]: 16; Relative ratio of hydrolysis rate [17]: 12; Relative ratio of hydrolysis rate [18]: 100; Relative ratio of hydrolysis rate [19]: 100
CC(N)C(=O)NC(CCCNC(=N)N)C(O)CC(=O)OCC1=C(C(=O)O)N2C(=O)C(NC(=O)CCCC(N)C(=O)O)C2SC1 (centres unmarked) [TAN-547 D] | 9.92 mg/kg | Amphoteric substance | Hardly soluble | Easily soluble | Slightly unstable | Unstable | Slightly unstable | 100 µg/mL (≈ 155 µM) | > 100 µg/mL | > 100 µg/mL | 50 µg/mL (≈ 77.6 µM) | 50 µg/mL (≈ 77.6 µM) | 12.5 µg/mL (≈ 19.4 µM) | > 100 µg/mL | 0.78 µg/mL (≈ 1.21 µM) | 25 µg/mL (≈ 38.8 µM) | 1.56 µg/mL (≈ 2.42 µM) | 50 µg/mL (≈ 77.6 µM) | 50 µg/mL (≈ 77.6 µM) | 0.78 µg/mL (≈ 1.21 µM) | death [20]: no death was observed
CC(N)C(=O)NC(CCCNC(=N)N)C(O)CC(=O)OCC1=C(C(=O)O)N2C(=O)C(NC=O)(NC(=O)CCCC(N)C(=O)O)C2SC1 (centres unmarked) [TAN-547 A] | 18.2 mg/kg | Amphoteric substance | Hardly soluble | Easily soluble | Unstable | Unstable | slightly unstable | 50 µg/mL (≈ 72.7 µM) | 50 µg/mL (≈ 72.7 µM) | > 50 µg/mL | 50 µg/mL (≈ 72.7 µM) | 25 µg/mL (≈ 36.4 µM) | 6.25 µg/mL (≈ 9.09 µM) | 50 µg/mL (≈ 72.7 µM) | 12.5 µg/mL (≈ 18.2 µM) | > 50 µg/mL | 6.25 µg/mL (≈ 9.09 µM) | 1.56 µg/mL (≈ 2.27 µM) | 50 µg/mL (≈ 72.7 µM) | 12.5 µg/mL (≈ 18.2 µM) | Relative ratio of hydrolysis rate [16]: < 0.01; Relative ratio of hydrolysis rate [17]: < 0.01; Relative ratio of hydrolysis rate [18]: < 0.01; Relative ratio of hydrolysis rate [19]: < 0.01; stability to β-lactamase (β-lactamase): remarkably stable
O=C(Cc1cccs1)N[C@@H]1C(=O)N2C(C(=O)[O-])=C(C[n+]3ccccc3)CS[C@H]12 [CER, cephaloridine, reference compound] | – | – | – | – | – | – | – | – | – | – | – | – | – | – | – | – | – | – | – | – | Relative ratio of hydrolysis rate [16]: 100; Relative ratio of hydrolysis rate [17]: 100; Relative ratio of hydrolysis rate [18]: 21; Relative ratio of hydrolysis rate [19]: 30
CCN1CCN(C(=O)N[C@@H](C(=O)N[C@@H]2C(=O)N3C(C(=O)O)=C(CSc4nnnn4C)CS[C@H]23)c2ccc(O)cc2)C(=O)C1=O [CPZ, cefoperazone, reference compound] | – | – | – | – | – | – | – | – | – | – | – | – | – | – | – | – | – | – | – | – | Relative ratio of hydrolysis rate [16]: 10.5; Relative ratio of hydrolysis rate [17]: 11.6; Relative ratio of hydrolysis rate [18]: 11.2; Relative ratio of hydrolysis rate [19]: 1.55
CC(N)C(=O)NC(C)C(=O)NC(C)C(=O)NC(CCCNC(=N)N)C(O)CC(=O)OCC1=C(C(=O)O)N2C(=O)C(NC=O)(NC(=O)CCCC(N)C(=O)O)C2SC1 (centres unmarked) [TAN-547 C] | 16.2 mg/kg | Amphoteric substance | Hardly soluble | Easily soluble | Unstable | Unstable | slightly unstable | 50 µg/mL (≈ 60.2 µM) | 50 µg/mL (≈ 60.2 µM) | > 50 µg/mL | 25 µg/mL (≈ 30.1 µM) | 25 µg/mL (≈ 30.1 µM) | 12.5 µg/mL (≈ 15.1 µM) | 50 µg/mL (≈ 60.2 µM) | 12.5 µg/mL (≈ 15.1 µM) | > 50 µg/mL | 12.5 µg/mL (≈ 15.1 µM) | 6.25 µg/mL (≈ 7.53 µM) | 50 µg/mL (≈ 60.2 µM) | 12.5 µg/mL (≈ 15.1 µM) | Relative ratio of hydrolysis rate [16]: < 0.01; Relative ratio of hydrolysis rate [17]: < 0.01; Relative ratio of hydrolysis rate [18]: < 0.01; Relative ratio of hydrolysis rate [19]: < 0.01; death [20]: no death was observed; stability to β-lactamase (β-lactamase): remarkably stable
